Tested on: hepatocytes
Assay: Seq-Well scRNA-Seq of hepatocytes after APAP overdose (signature scores, DEG vs untreated)
Type: in vivo, mouse
Conditions: A96 vs untreated (UT)

For `CC(=O)Nc1ccc(O)cc1` [APAP, acetaminophen], the “Herpud1 avg_logFC” value was 0.3333, the “Herpud1 pct.1” value was 0.9 and the “Hhex avg_logFC” value was 0.3209. The “Hhex pct.1” value was 0.543, the “Hmgcl avg_logFC” value was 0.353 and the “Hmgcl pct.1” value was 0.871. For the same molecule, the “Hmgcs1 avg_logFC” value was 0.2967, the “Hmgcs1 pct.1” value was 0.858 and the “Hmgcs2 avg_logFC” value was 0.4234. The “Hmgcs2 pct.1” value was 0.996, the “Hnf4a avg_logFC” value was 0.2824 and the “Hnf4a pct.1” value was 0.858. For the same molecule, the “Hpgd avg_logFC” value was 0.3398, the “Hpgd pct.1” value was 0.588 and the “Hpx avg_logFC” value was −0.264. For the same molecule, the “Hpx pct.1” value was 0.998, the “Hrg avg_logFC” value was 0.4095 and the “Hrg pct.1” value was 0.923. For the same molecule, the “Hsd3b5 avg_logFC” value was −0.7981, the “Hsd3b5 pct.1” value was 0.25 and the “Hsd17b7 avg_logFC” value was 0.3056. For the same molecule, the “Hsd17b7 pct.1” value was 0.56, the “Hsd17b10 avg_logFC” value was 0.3092 and the “Hsd17b10 pct.1” value was 0.841. The “Hspa8 avg_logFC” value was 0.4257, the “Hspa8 pct.1” value was 0.905 and the “Igfbp4 avg_logFC” value was 0.4189. The “Igfbp4 pct.1” value was 0.964, the “Ildr2 avg_logFC” value was 0.2509 and the “Ildr2 pct.1” value was 0.356. The “Insig2 avg_logFC” value was 0.3594, the “Insig2 pct.1” value was 0.928 and the “Iqgap2 avg_logFC” value was 0.2645. For the same molecule, the “Iqgap2 pct.1” value was 0.799, the “Kif1b avg_logFC” value was 0.3909 and the “Kif1b pct.1” value was 0.686. For the same molecule, the “Lcat avg_logFC” value was 0.3294, the “Lcat pct.1” value was 0.886 and the “Lifr avg_logFC” value was −0.4875. The “Lifr pct.1” value was 0.556, the “Lipa avg_logFC” value was 0.4376 and the “Lipa pct.1” value was 0.791. The “Lpgat1 avg_logFC” value was 0.275, the “Lpgat1 pct.1” value was 0.671 and the “Lpin2 avg_logFC” value was 0.2841. The “Lpin2 pct.1” value was 0.781, the “Lrrc58 avg_logFC” value was 0.2641 and the “Lrrc58 pct.1” value was 0.543. For the same molecule, the “Man2a1 avg_logFC” value was 0.3324, the “Man2a1 pct.1” value was 0.737 and the “Maob avg_logFC” value was 0.2722. For the same molecule, the “Maob pct.1” value was 0.708, the “Mat1a avg_logFC” value was 0.9328 and the “Mat1a pct.1” value was 1. The “Mettl7b avg_logFC” value was 0.3784, the “Mettl7b pct.1” value was 0.949 and the “Mfsd2a avg_logFC” value was 0.3802. The “Mfsd2a pct.1” value was 0.41, the “Mia3 avg_logFC” value was 0.3563 and the “Mia3 pct.1” value was 0.81. For the same molecule, the “Mt1 avg_logFC” value was 0.638, the “Mt1 pct.1” value was 0.839 and the “Mt2 avg_logFC” value was 0.3136. For the same molecule, the “Mt2 pct.1” value was 0.548, the “Mtdh avg_logFC” value was 0.321 and the “Mtdh pct.1” value was 0.649. For the same molecule, the “Mttp avg_logFC” value was 0.2755, the “Mttp pct.1” value was 0.816 and the “Mup3 avg_logFC” value was −0.4098. For the same molecule, the “Mup3 pct.1” value was 1, the “Mup5 avg_logFC” value was −1.266 and the “Mup5 pct.1” value was 0.538. For the same molecule, the “Mup6 avg_logFC” value was −2.021, the “Mup6 pct.1” value was 0.778 and the “Mup7 avg_logFC” value was −1.145. For the same molecule, the “Mup7 pct.1” value was 0.938, the “Mup8 avg_logFC” value was −0.7871 and the “Mup8 pct.1” value was 0.067. For the same molecule, the “Mup9 avg_logFC” value was −1.818, the “Mup9 pct.1” value was 0.619 and the “Mup11 avg_logFC” value was −1.559. For the same molecule, the “Mup11 pct.1” value was 0.905, the “Mup12 avg_logFC” value was −0.8331 and the “Mup12 pct.1” value was 0.571. The “Mup15 avg_logFC” value was −1.239, the “Mup15 pct.1” value was 0.156 and the “Mup16 avg_logFC” value was −1.119. The “Mup16 pct.1” value was 0.567, the “Mup17 avg_logFC” value was −1.889 and the “Mup17 pct.1” value was 0.98. For the same molecule, the “Mup18 avg_logFC” value was −1.297, the “Mup18 pct.1” value was 0.928 and the “Mup19 avg_logFC” value was −1.258. The “Mup19 pct.1” value was 0.973, the “Mup21 avg_logFC” value was −0.94 and the “Mup21 pct.1” value was 0.676. The “Ncl avg_logFC” value was 0.2809, the “Ncl pct.1” value was 0.731 and the “Ndrg2 avg_logFC” value was 0.3802. The “Ndrg2 pct.1” value was 0.985, the “Nfe2l1 avg_logFC” value was 0.2902 and the “Nfe2l1 pct.1” value was 0.508. For the same molecule, the “Nfe2l2 avg_logFC” value was 0.3048, the “Nfe2l2 pct.1” value was 0.465 and the “Nfib avg_logFC” value was 0.2501. For the same molecule, the “Nfib pct.1” value was 0.55, the “Nr1i3 avg_logFC” value was 0.3735 and the “Nr1i3 pct.1” value was 0.625. The “Nucks1 avg_logFC” value was 0.2509, the “Nucks1 pct.1” value was 0.621 and the “Nudt7 avg_logFC” value was −1.14. The “Nudt7 pct.1” value was 0.602, the “Pabpc1 avg_logFC” value was 0.3693 and the “Pabpc1 pct.1” value was 0.766. For the same molecule, the “Palmd avg_logFC” value was 0.2584, the “Palmd pct.1” value was 0.43 and the “Pbld1 avg_logFC” value was 0.2811. For the same molecule, the “Pbld1 pct.1” value was 0.723, the “Pcbp2 avg_logFC” value was 0.3113 and the “Pcbp2 pct.1” value was 0.621. The “Pdia6 avg_logFC” value was −0.3359, the “Pdia6 pct.1” value was 0.611 and the “Pdk1 avg_logFC” value was 0.2561. The “Pdk1 pct.1” value was 0.438, the “Pex11a avg_logFC” value was 0.462 and the “Pex11a pct.1” value was 0.7. For the same molecule, the “Phyh avg_logFC” value was 0.2541, the “Phyh pct.1” value was 0.998 and the “Pigr avg_logFC” value was 0.2754. For the same molecule, the “Pigr pct.1” value was 0.957, the “Plin5 avg_logFC” value was 0.2663 and the “Plin5 pct.1” value was 0.532. The “Pltp avg_logFC” value was 0.2919, the “Pltp pct.1” value was 0.237 and the “Pnp1a8 avg_logFC” value was 0.3083. For the same molecule, the “Pnp1a8 pct.1” value was 0.723, the “Ppap2b avg_logFC” value was 0.2573 and the “Ppap2b pct.1” value was 0.593. The “Ppara avg_logFC” value was 0.3055, the “Ppara pct.1” value was 0.614 and the “Ppib avg_logFC” value was −0.3519. The “Ppib pct.1” value was 0.696, the “Ppm1a avg_logFC” value was 0.276 and the “Ppm1a pct.1” value was 0.571. For the same molecule, the “Ppp2r5a avg_logFC” value was 0.3493, the “Ppp2r5a pct.1” value was 0.764 and the “Prkd3 avg_logFC” value was 0.305. The “Prkd3 pct.1” value was 0.682, the “Prlr avg_logFC” value was 0.3611 and the “Prlr pct.1” value was 0.574. The “Pten avg_logFC” value was 0.3025, the “Pten pct.1” value was 0.64 and the “Ptms avg_logFC” value was 0.3243. For the same molecule, the “Ptms pct.1” value was 0.806, the “Ptp4a2 avg_logFC” value was 0.259 and the “Ptp4a2 pct.1” value was 0.691. For the same molecule, the “Ptplad1 avg_logFC” value was 0.2783, the “Ptplad1 pct.1” value was 0.654 and the “Ptprd avg_logFC” value was 0.2719. For the same molecule, the “Ptprd pct.1” value was 0.582, the “Pxmp4 avg_logFC” value was 0.2794 and the “Pxmp4 pct.1” value was 0.687. For the same molecule, the “Rdh7 avg_logFC” value was 0.2671, the “Rdh7 pct.1” value was 0.995 and the “Rdh16 avg_logFC” value was 0.3716. For the same molecule, the “Rdh16 pct.1” value was 0.494, the “Reep6 avg_logFC” value was 0.3193 and the “Reep6 pct.1” value was 0.891. For the same molecule, the “Retsat avg_logFC” value was 0.5333, the “Retsat pct.1” value was 0.957 and the “Saa1 avg_logFC” value was −1.157. The “Saa1 pct.1” value was 0.232, the “Sc4mol avg_logFC” value was 0.2814 and the “Sc4mol pct.1” value was 0.781. For the same molecule, the “Sdhc avg_logFC” value was 0.3181, the “Sdhc pct.1” value was 0.76 and the “Sec14l2 avg_logFC” value was 0.2724. The “Sec14l2 pct.1” value was 0.939, the “Secisbp2l avg_logFC” value was 0.2781 and the “Secisbp2l pct.1” value was 0.529. For the same molecule, the “Selenbp2 avg_logFC” value was −1.258, the “Selenbp2 pct.1” value was 0.612 and the “Sepp1 avg_logFC” value was 0.2839. The “Sepp1 pct.1” value was 1, the “Serpina1a avg_logFC” value was −0.2708 and the “Serpina1a pct.1” value was 0.991. The “Serpina1b avg_logFC” value was −0.3845, the “Serpina1b pct.1” value was 0.996 and the “Serpina1c avg_logFC” value was −0.3176. The “Serpina1c pct.1” value was 0.998, the “Serpina1e avg_logFC” value was −1.134 and the “Serpina1e pct.1” value was 0.977. The “Serpina3k avg_logFC” value was −0.3036, the “Serpina3k pct.1” value was 1 and the “Serpina12 avg_logFC” value was −0.5326. For the same molecule, the “Serpina12 pct.1” value was 0.226, the “Serpinf1 avg_logFC” value was 0.2572 and the “Serpinf1 pct.1” value was 0.934. The “Sh3glb1 avg_logFC” value was 0.2538, the “Sh3glb1 pct.1” value was 0.433 and the “Slc4a4 avg_logFC” value was 0.4025. The “Slc4a4 pct.1” value was 0.609.
